Source: patent US20130143236A1, “METHOD FOR DETERMINING SENSITIVITY OF TUMOR CELLS TO DASATINIB AND COMPUTER PROGRAM” (priority 2011, published 2013)

Tested on: tyrosine kinase in the measurement sample (cell membrane fraction of breast cancer cell lines)
Experiment: Tyrosine kinase activity of cell membrane fraction in presence/absence of tyrosine kinase inhibitor (Poly-Glu4-Tyr substrate, ELISA chemiluminescence)
Type: biochemical
Conditions: 25 μM kinase inhibitor, 25 μM ATP, activity with inhibitor / without
Protocol: 500 μl of NP40(−) solubilized buffer (20 mM HEPES (pH 7.4)), 10 (w/v) % glycerol, 0.2% protease inhibitor cocktail (#P8340: Sigma-Aldrich (product composition: 104 mM AEBSF, 80 μM aprotinin, 4 mM bestatin, 1.4 mM E-64, 2 mM leupeptin, 1.5 mM Pepstatin A), 50 mM NaF and 200 μM Na3VO4) was added to the cell pellet, followed by stirring for 2 seconds three times using a vortex mixer. After being allowed to stand for 10 minutes, the soluble fraction was removed by centrifugal operation (at 20000×g, for 30 minutes, at 4° C.). The obtained pellet was resuspended in 500 μl of NP40(−) solubilized buffer, the soluble fraction was again removed by centrifugal operation (at 20000×g, for 20 minutes, at 4° C.), and the pellet was washed. The pellet was resuspended by adding 500 μl of NP40(+) solubilized buffer (a buffer prepared by adding NP-40 to the NP40(−) solubilized buffer at a final concentration of 1% to the pellet, pipetting 50 times, and vortexing for 2 seconds three times. After being allowed to stand for 10 minutes, a cell membrane fraction containing a membrane protein was obtained by centrifugal operation (at 20000×g, for 40 minutes, at 4° C.). The protein concentration of the obtained cell membrane fraction was measured by DC protein assay (#500-0116 JA: Bio-Rad). Then, the cell membrane fraction was used as a measurement sample for the following experiments. The measurement sample was frozen with liquid nitrogen and stored at −80° C. before use for the following kinase activity measurement.
NeutrAvidin Coated Plates (HBC) (96-well white plate; #15509: Pierce) were washed three times with 300 μl of TBS-T (20 mM Tris-HCl (pH 7.4)), 150 mM NaCl, 0.1% tween). Then, 100 μl of Poly-Glu4-Tyr biotin conjugate (#12440: Upstate) which had been diluted to 1 μg/ml with TBS (20 mM Tris-HCl (pH 7.4), 150 mM NaCl) was added to the wells. After shaking at 37° C. and 400 rpm for 90 minutes, the wells were washed with 300 μl of TBS-T three times and a measuring plate was obtained.
The measurement sample was diluted with a kinase buffer (20 mM HEPES (pH 7.4), 25 mM MgCl2, 1.25 mM MnCl2, 250 μM Na3VO4, 12.5 (w/v) % glycerol) so as to adjust the protein concentration to 6.25 μg/ml. The diluted measurement sample was transferred to wells of a 96 well V bottom plate. As the tyrosine kinase inhibitors, Src kinase inhibitor I known as an inhibitor of Src (CAS No. 179248-59-0: Calbiochem), PP1 (CAS No. 172889-26-8: Biomol), and Src kinase inhibitor II (Calbiochem) represented by Structural formula (I) below were used. A DMSO solution (inhibitor concentration: 5 mM) containing these inhibitors (Inhibitors 1 to 10 shown in Table 6) was added to the wells at a ratio of 1:160 based on the diluted measurement sample, followed by mixing thereof. As the control, DMSO was added to the diluted measurement sample at the same ratio as the solution of the inhibitor.
After addition of each of the tyrosine kinase inhibitors, a mixed solution of the measurement sample and the inhibitor was allowed to stand at room temperature for 10 minutes. 40 μl of the mixed solution was transferred to wells of the measuring plate and 10 μl of an ATP solution (20 mM HEPES (pH 7.4), […]) as the phosphate group donor was added to the wells. The composition of the solution in the wells is as follows: protein concentration: 5 μg/ml, 20 mM HEPES (pH 7.4), 20 mM MgCl2, 1 mM MnCl2, 200 μM Na3VO4, 10 (w/v) % glycerol, and 25 μM ATP, 25 μM kinase inhibitor.
After shaking the measuring plate at 37° C. and 400 rpm for 60 minutes, the solution was removed from the measuring plate, and the wells were washed with 300 μl of TBS-T three times. 100 μl of Starting Block T20 (TBS) (#37543: Pierce) as a blocking solution was added to the wells, followed by blocking at 37° C. and 400 rpm for 10 minutes. The blocking solution was removed from the measuring plate. […]

[1] = AU565 membrane fraction (dasatinib-insensitive cell line)
[2] = BT-20 membrane fraction (dasatinib-sensitive cell line)
[3] = BT-474 membrane fraction (dasatinib-insensitive cell line)
[4] = BT-549 membrane fraction (dasatinib-insensitive cell line)
[5] = HCC1419 membrane fraction (dasatinib-insensitive cell line)
[6] = HCC1428 membrane fraction (dasatinib-insensitive cell line)
[7] = HCC1806 membrane fraction (dasatinib-sensitive cell line)
[8] = HCC1954 membrane fraction (dasatinib-sensitive cell line)
[9] = HS578T membrane fraction (dasatinib-sensitive cell line)
[10] = MCF7 membrane fraction (dasatinib-insensitive cell line)
[11] = MDA-MB-157 membrane fraction (dasatinib-sensitive cell line)
[12] = MDA-MB-231 membrane fraction (dasatinib-sensitive cell line)
[13] = MDA-MB-435S membrane fraction (dasatinib-insensitive cell line)
[14] = MDA-MB-436 membrane fraction (dasatinib-insensitive cell line)
[15] = MDA-MB-453 membrane fraction (dasatinib-insensitive cell line)
[16] = MDA-MB-468 membrane fraction (dasatinib-insensitive cell line)
[17] = SK-BR-3 membrane fraction (dasatinib-insensitive cell line)
[18] = ZR-75-1 membrane fraction (dasatinib-insensitive cell line)
[19] = ZR-75-30 membrane fraction (dasatinib-insensitive cell line)

Structure (SMILES) | RA (relative activity value) [1] | RA (relative activity value) [2] | RA (relative activity value) [3] | RA (relative activity value) [4] | RA (relative activity value) [5] | RA (relative activity value) [6] | RA (relative activity value) [7] | RA (relative activity value) [8] | RA (relative activity value) [9] | RA (relative activity value) [10] | RA (relative activity value) [11] | RA (relative activity value) [12] | RA (relative activity value) [13] | RA (relative activity value) [14] | RA (relative activity value) [15] | RA (relative activity value) [16] | RA (relative activity value) [17] | RA (relative activity value) [18] | RA (relative activity value) [19]
Cc1ccc(-c2nn(C(C)(C)C)c3ncnc(N)c23)cc1 [PP1, 1-(1,1-dimethylethyl)-1-(4-methylphenyl)-1H-pyrazolo-[3,4-d]-pyrimidine-4-amine] | 0.302 | 0.309 | 0.496 | 0.193 | 0.446 | 0.451 | 0.160 | 0.292 | 0.194 | 0.295 | 0.173 | 0.134 | 0.313 | 0.403 | 0.448 | 0.322 | 0.260 | 0.314 | 0.507
COc1cc2ncnc(Nc3ccc(Oc4ccccc4)cc3)c2cc1OC [Src kinase inhibitor I, 4-(4′-phenoxylanilino)-6,7-dimethoxyquinazoline] | 0.632 | 0.434 | 0.624 | 0.394 | 0.637 | 0.563 | 0.329 | 0.535 | 0.418 | 0.508 | 0.397 | 0.364 | 0.551 | 0.551 | 0.837 | 0.190 | 0.567 | 0.442 | 0.627
COc1ccc2c(c1)cc(C)c1nnc(SCC(=O)Nc3cccc(C(C)=O)c3)n12 [Src kinase inhibitor II] | 0.731 | 0.668 | 0.620 | 0.528 | 0.615 | 0.720 | 0.476 | 0.644 | 0.709 | 0.307 | 0.715 | 0.426 | 0.500 | 0.514 | 0.549 | 0.523 | 0.414 | 0.697 | 0.596
